According to PMC2886105, “Assay Strategies for the Discovery and Validation of Therapeutics Targeting Brugia pahangi Hsp90” (PLoS Neglected Tropical Diseases, 2010):
Where two headings read alike, the source gives them in different places. One block for each molecule: values may come before it.

Legend:
Brugia Hsp90 = target: T1, Brugia Hsp90 (Brugia pahangi, UniProt O61998); assay: biochemical; type: binding; settings: for dose-dependent reduction of the FP signal: Figure 3B, Brugia extract; for IC50: 6 nM cy3B-GA, 2 µg/well Brugia extract, 4°C, 24 h
T1 construct: from tissue; host or cells: whole adult B. pahangi worms from infected gerbils, ground and re-suspended in HFB assay buffer
Procedure: FP measurements were performed using black 96-well microtiter plates (Corning #3650), where both the excitation and the emission occurred from the top of the well, on an Analyst GT plate reader (Molecular Devices, Sunnyvale, CA). An integration time of 100 ms was used, and Z height was set at 3 mm (middle). The excitation polarization was set at static, and the emission polarization was set at dynamic. […] All FP values were expressed in millipolarization (mP) units. The mP values were calculated using the equation mP = 1000× [(IS – ISB) – (IP – IPB)]/[(IS – ISB) + (IP – IPB)], where IS is the parallel emission intensity measurement, IP is the perpendicular emission intensity sample measurement, and ISB and […] are the corresponding measurements for background (buffer). Total fluorescence was determined as 2×IP+IS.
For the competition studies, FP assays were performed as previously reported. […] Drugs were added to triplicate wells. […] Plates were incubated on a shaker at 4°C, and polarization values measured at 8 to 24 h.
(§1) Figure 3 Brugia assay validation. […] Ligand binding was plotted against the log10 inhibitor concentration, and EC50 values were calculated using a nonlinear least-square curve-fitting program in Prism 4.0. Points, mean; bars, s.d. […] Graphs show mean and SD of Mf output over a three-day period from six female worms per group.

adult female B. pahangi [1] = tested on: adult female B. pahangi; parameters: method as in PMID 15862576; settings: adult worms ref 14; cited from earlier work
adult female B. pahangi [2] = assay: Mf output by adult female B. pahangi cultured in vitro with drug; parameters: species or system Brugia pahangi; settings: GA at 1 µM; PU-H71 and PU-DZ8 at 5 and 10 µM; three-day period
Procedure: (§2) Mf output by individual female worms was assessed at two time points and adult worms were examined microscopically and their condition noted. Results are expressed as mean Mf output over a three-day period ± SD. Statistical significance between groups was calculated using the Mann Whitney test with P values <0.05 being considered significant.
as §1

B. pahangi Mf = assay: Mortality of purified B. pahangi Mf incubated in drug; parameters: species or system Brugia pahangi; settings: day 7
Procedure: as §2
In separate experiments, Mf were purified from the peritoneal cavity of infected animals and incubated alone in each of the drugs.

adult B. pahangi = assay: Condition and activity of adult B. pahangi worms in vitro; parameters: species or system Brugia pahangi
Procedure: Mf output by individual female worms was assessed at two time points and adult worms were examined microscopically and their condition noted. Results are expressed as mean Mf output over a three-day period ± SD.

Molecule: Nc1ncnc2c1ncn2[C@@H]1O[C@H](COP(=O)(O)OP(=O)(O)O)[C@@H](O)[C@H]1O [ADP]
- dose-dependent reduction of the FP signal (Brugia Hsp90): dose-dependent reduction of the FP signal

Molecule: COC1=C2C[C@@H](C)C[C@H](OC)[C@H](O)[C@@H](C)/C=C(\C)[C@H](OC(N)=O)[C@@H](OC)/C=C\C=C(/C)C(=O)NC(=CC1=O)C2=O [GA, geldanamycin]
- onset of effect on Mf output (adult female B. pahangi [1]): ≤ 24 h
- effect on Mf release (adult female B. pahangi [2]): profound effect
- Mf dead (B. pahangi Mf; 1.0 µM): all dead

Molecule: CC(C)NCCCn1c(Sc2cc3c(cc2I)OCO3)nc2c(N)ncnc21 [PU-H71]
- IC50 (Brugia Hsp90; Brugia IC50, Figure 4C): 80.8 ± 0.5 nM
- IC50 (Brugia Hsp90; IC50, inhibition of the binding of cy3B-GA to Brugia Hsp90, values in text for Figure 3C): 80 nM
- activity of adult worms (adult B. pahangi; 5.0 µM): markedly less active
- activity of adult worms (adult B. pahangi; 10 µM): markedly less active
- concentration of drug required to kill adult Brugia (adult B. pahangi; in vitro): 2.5 µM
- effect on Mf release (adult female B. pahangi [2]): profound effect
- Mf dead (B. pahangi Mf; 5.0 µM): approximately 80%
- Mf dead (B. pahangi Mf; 10 µM): 100%

Molecule: ivermectin
- dose-dependent reduction of the FP signal (Brugia Hsp90): no such effect

Next, values leading:

- Selectivity ratio (Brugia IC50 / SKBr3 IC50) (Brugia Hsp90): 2
- IC50 (Brugia Hsp90; Brugia IC50, Figure 4C): 1410 ± 10 nM
Molecule: C#CCCCn1c(Cc2cc(OC)c(OC)c(OC)c2Cl)nc2c(N)nc(F)nc21 [PU-24FCl]

- Selectivity ratio (Brugia IC50 / SKBr3 IC50) (Brugia Hsp90; Brugia vs human SKBr3 Hsp90 species): 9
Molecule: CC(C)NCCCn1c(Sc2cc3c(cc2I)OCC3)nc2c(N)ncnc21 [PU-WS10]

- EC50 (Brugia Hsp90): > 10000 nM
Molecule: CO[C@@H]1[C@@H](OC(N)=O)[C@@H](O)[C@H](Oc2ccc3c(O)c(NC(=O)c4ccc(O)c(CC=C(C)C)c4)c(=O)oc3c2C)OC1(C)C [novobiocin]

- EC50 (Brugia Hsp90): 75.4 nM
Molecule: C[C@@H]1C[C@H]2O[C@@H]2/C=C\C=C\C(=O)Cc2c(Cl)c(O)cc(O)c2C(=O)O1 [radicicol]
